Measured values from ChEMBL document CHEMBL1126429, “MDL 74147, a novel selective and soluble inhibitor of human renin. Synthesis, structure-activity relationship, species and protease selectivities” (Bioorg Med Chem Lett, 1992).
Where a SMILES comes first, the peptide text is derived from it. [ ]: non-standard residue; d: D form. The star is where a group is joined. Cha = N[C@@H](CC1CCCCC1)C(=O)O; Boc = CC(C)(C)OC(=O)*; CF3 = FC(F)(F)*

Columns and labels:
Renin = molecular target: T1, Renin (Homo sapiens, UniProt P00797); test: Concentration required to inhibit human plasma renin by 50% using radio-immunoassay was determined; type: cell-free
T1 sequence (P00797 whole entry): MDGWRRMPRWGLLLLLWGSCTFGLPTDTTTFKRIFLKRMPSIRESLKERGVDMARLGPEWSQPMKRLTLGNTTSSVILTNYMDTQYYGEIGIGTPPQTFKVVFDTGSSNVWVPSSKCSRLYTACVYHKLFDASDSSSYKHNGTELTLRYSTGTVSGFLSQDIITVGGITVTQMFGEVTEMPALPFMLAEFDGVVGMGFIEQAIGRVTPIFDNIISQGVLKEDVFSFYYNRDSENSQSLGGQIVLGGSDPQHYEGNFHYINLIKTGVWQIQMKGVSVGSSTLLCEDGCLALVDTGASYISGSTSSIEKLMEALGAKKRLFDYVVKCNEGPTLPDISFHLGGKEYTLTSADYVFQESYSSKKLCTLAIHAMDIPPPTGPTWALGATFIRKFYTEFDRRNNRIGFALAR

Chymotrypsinogen A = Chymotrypsinogen A (Bos taurus, UniProt P00766); test: Concentration required to inhibit the enzyme chymotrypsin
Pepsin A = Pepsin A (Sus scrofa, UniProt P00791); test: Concentration required to inhibit the enzyme pepsin
Sequence of Pepsin A (P00791 whole entry): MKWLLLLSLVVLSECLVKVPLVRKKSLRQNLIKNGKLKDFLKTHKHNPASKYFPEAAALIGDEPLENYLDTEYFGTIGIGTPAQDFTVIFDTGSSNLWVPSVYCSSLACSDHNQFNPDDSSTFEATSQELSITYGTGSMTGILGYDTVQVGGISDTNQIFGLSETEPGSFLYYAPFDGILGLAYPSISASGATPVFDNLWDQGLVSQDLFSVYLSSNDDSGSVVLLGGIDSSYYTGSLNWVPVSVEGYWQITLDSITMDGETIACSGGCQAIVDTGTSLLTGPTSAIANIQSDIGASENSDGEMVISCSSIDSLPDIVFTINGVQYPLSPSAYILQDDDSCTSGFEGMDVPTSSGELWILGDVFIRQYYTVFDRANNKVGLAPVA

## COc1ccc(C[C@H](NC(=O)CC(C)C)C(=O)N[C@H](C)C(=O)N[C@@H](CC2CCCCC2)C(=O)C(F)(F)CN)cc1
Renin
  IC50: 27 µM

## CCC[C@H](NC(=O)[C@H](Cc1ccc(OC)cc1)NC(=O)CC(C)C)C(=O)N[C@@H](CC1CCCCC1)C(O)C(F)(F)CN (some centres not stated)
Renin
  IC50: > 1 µM

## CCC[C@H](NC(=O)[C@H](Cc1ccc(OC)cc1)NC(=O)CC(C)C)C(=O)N[C@@H](CC1CCCCC1)C(=O)C(F)(F)CN
Chymotrypsinogen A
  Ki: 2500 nM
Pepsin A
  Ki: 40 µM

## COc1ccc(C[C@H](NC(=O)CC(C)C)C(=O)CCC(=O)N[C@@H](CC2CCCCC2)C(=O)C(F)(F)CN)cc1
Renin
  IC50: 25 µM

## CC(C)C[C@H](NC(=O)[C@H](Cc1ccccc1)NC(=O)OC(C)(C)C)C(=O)N[C@@H](CC1CCCCC1)C(=O)C(F)(F)F (Boc-Phe-Leu-[Cha]-CF3)
Renin
  IC50: 0.25 µM

## CCC[C@@H](C(=O)N[C@@H](CC1CCCCC1)C(=O)C(F)(F)CN)N(C)C(=O)[C@H](Cc1ccc(OC)cc1)NC(=O)CC(C)C
Renin
  IC50: 40 µM
